The values below come from ChEMBL document CHEMBL1221332, “[3-azabicyclo[3.1.0]hex-1-yl]phenyl-benzenesulfonamides as selective dopamine D3 antagonists” (Bioorg Med Chem Lett, 2010).

For one data set, the target named is D(3) dopamine receptor (Homo sapiens, UniProt P35462). As to the kind of experiment: Antagonist activity at dopamine D3 receptor by GTPgammaS binding assay. The class given is functional. A general note: Binding of GTPγS marks nucleotide exchange on a G protein.
Data set [1] has as its target Voltage-gated inwardly rectifying potassium channel KCNH2 (Homo sapiens, UniProt Q12809).
For the next data set, the target named is D(2) dopamine receptor (Homo sapiens, UniProt P14416).
The nature of data set [2]: Ratio of drug level in brain to plasma in rat. The class given is ADME.

D(3) dopamine receptor, sequence (P35462 whole entry): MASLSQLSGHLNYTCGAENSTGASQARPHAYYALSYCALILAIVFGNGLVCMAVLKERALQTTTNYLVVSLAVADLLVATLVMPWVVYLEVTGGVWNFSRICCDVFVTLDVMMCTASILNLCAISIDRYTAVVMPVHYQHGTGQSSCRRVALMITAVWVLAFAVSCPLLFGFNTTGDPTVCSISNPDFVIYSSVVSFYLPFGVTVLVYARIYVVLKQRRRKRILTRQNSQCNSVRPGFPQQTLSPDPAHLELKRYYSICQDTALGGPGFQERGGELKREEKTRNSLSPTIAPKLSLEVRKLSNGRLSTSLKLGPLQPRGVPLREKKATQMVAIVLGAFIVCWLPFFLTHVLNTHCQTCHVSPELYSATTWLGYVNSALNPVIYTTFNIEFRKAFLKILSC
D(2) dopamine receptor, sequence (P14416 whole entry): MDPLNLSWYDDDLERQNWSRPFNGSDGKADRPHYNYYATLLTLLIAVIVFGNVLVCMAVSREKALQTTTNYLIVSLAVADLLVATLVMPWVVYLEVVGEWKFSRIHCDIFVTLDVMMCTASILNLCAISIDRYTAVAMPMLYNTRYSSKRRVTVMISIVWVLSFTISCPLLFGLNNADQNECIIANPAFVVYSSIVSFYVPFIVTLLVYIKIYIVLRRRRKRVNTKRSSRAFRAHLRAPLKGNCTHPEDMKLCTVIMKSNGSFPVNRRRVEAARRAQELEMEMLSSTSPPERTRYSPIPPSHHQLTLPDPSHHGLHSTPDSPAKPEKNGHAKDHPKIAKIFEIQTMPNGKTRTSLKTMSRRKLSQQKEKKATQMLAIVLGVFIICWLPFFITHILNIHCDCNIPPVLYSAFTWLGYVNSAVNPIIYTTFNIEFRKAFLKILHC
Voltage-gated inwardly rectifying potassium channel KCNH2, sequence (Q12809 whole entry): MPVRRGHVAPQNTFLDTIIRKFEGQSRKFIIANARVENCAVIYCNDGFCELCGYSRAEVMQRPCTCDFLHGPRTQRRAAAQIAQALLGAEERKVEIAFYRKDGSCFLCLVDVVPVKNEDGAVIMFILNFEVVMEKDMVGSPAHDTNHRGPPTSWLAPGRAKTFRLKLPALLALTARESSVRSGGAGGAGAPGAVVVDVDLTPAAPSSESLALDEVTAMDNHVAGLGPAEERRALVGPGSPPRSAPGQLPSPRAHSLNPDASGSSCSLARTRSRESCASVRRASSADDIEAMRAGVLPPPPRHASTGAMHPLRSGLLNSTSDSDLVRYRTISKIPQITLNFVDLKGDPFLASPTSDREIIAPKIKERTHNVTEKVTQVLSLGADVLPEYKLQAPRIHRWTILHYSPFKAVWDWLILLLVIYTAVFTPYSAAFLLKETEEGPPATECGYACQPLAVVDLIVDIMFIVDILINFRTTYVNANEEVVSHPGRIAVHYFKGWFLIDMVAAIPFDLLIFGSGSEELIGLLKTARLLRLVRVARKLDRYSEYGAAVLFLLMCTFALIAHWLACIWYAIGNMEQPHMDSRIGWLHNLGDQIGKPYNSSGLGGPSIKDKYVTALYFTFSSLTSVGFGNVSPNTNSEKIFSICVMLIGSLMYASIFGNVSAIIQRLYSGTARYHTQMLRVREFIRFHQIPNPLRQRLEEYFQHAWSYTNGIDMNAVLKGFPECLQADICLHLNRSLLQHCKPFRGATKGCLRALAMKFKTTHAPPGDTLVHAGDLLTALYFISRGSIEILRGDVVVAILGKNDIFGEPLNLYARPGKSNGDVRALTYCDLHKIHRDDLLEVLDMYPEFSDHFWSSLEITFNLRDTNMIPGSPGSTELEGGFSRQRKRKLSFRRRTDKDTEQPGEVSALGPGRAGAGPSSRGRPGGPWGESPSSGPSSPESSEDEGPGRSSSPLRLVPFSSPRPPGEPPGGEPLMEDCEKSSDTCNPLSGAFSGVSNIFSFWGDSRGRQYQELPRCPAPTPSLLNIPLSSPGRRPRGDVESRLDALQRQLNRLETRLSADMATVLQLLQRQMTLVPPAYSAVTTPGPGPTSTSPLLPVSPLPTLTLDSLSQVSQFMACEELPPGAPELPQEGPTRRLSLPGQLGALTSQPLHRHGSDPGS
Description for D(2) dopamine receptor: Antagonist activity at dopamine D2 receptor by GTPgammaS binding assay

As to `CC(C)c1ccc(S(=O)(=O)Cc2ccc([C@]34CNC[C@H]3C4)cc2)cc1`, the figures for the Ki on D(3) dopamine receptor and at D(2) dopamine receptor were 25.1 nM and 316 nM, respectively. In addition, in data set [1], the 50% inhibitory concentration (IC50) (usually the concentration that inhibits the measured activity by half) was 1260 nM.
For `CN(c1ccc([C@]23CNC[C@H]2C3)cc1)S(=O)(=O)c1ccccc1`, the inhibitory constant (Ki) – broadly, the dissociation constant of the complex between target and ligand, obtained from inhibition or displacement – is 79.4 nM at D(3) dopamine receptor and 501 nM on D(2) dopamine receptor. The IC50 in data set [1] is over 63100 nM.
Consider `CC(C)c1ccc(CS(=O)(=O)c2ccc([C@]34CNC[C@H]3C4)cc2)cc1`, for which the figures for the Ki at D(3) dopamine receptor and at D(2) dopamine receptor were 25.1 nM and over 3160 nM, respectively. Moreover, half-maximal inhibition in data set [1] (IC50) required 3160 nM.
As for `CCCCc1ccc(S(=O)(=O)Nc2ccc([C@]34CNC[C@H]3C4)cc2)cc1`, the Ki at D(3) dopamine receptor was 5.01 nM; on D(2) dopamine receptor, 126 nM.
As for `CCC(C)(C)c1ccc(S(=O)(=O)Nc2ccc([C@]34CNC[C@H]3C4)cc2)cc1`, the Ki was 6.31 nM on D(3) dopamine receptor and 50.1 nM at D(2) dopamine receptor.
For the compound `CC(C)c1ccc(S(=O)(=O)Nc2ccc([C@@]34C[C@@H]3CN(C)C4)cc2)cc1`, the Kp (in general, the ratio of the level in a tissue or fluid to that in plasma or blood) in data set [2] was 7.3. For the same compound, the values for the Ki on D(3) dopamine receptor and on D(2) dopamine receptor were 6.31 nM and 63.1 nM, respectively. In addition, the IC50 in data set [1] was 1580 nM.
As to `CCN1C[C@H]2C[C@@]2(c2ccc(NS(=O)(=O)c3ccc(C(C)C)cc3)cc2)C1`, the Ki is 7.94 nM at D(3) dopamine receptor and 100 nM on D(2) dopamine receptor. The IC50 in data set [1] is 1260 nM.
For the compound `C=CCN1C[C@H]2C[C@@]2(c2ccc(NS(=O)(=O)c3ccc(C(C)C)cc3)cc2)C1`, the Ki on D(3) dopamine receptor is 2.51 nM; at D(2) dopamine receptor, 63.1 nM. In addition, the IC50 in data set [1] was 100 nM.
In the case of `COc1cc([C@]23CNC[C@H]2C3)ccc1NS(=O)(=O)c1ccc(C(C)C)cc1`, the Ki at D(2) dopamine receptor is 50.1 nM.
For the compound `O=S(=O)(Nc1ccc([C@]23CNC[C@H]2C3)cc1)c1ccc(C(F)(F)F)cc1`, the Ki was 251 nM on D(3) dopamine receptor and over 3160 nM on D(2) dopamine receptor. Besides, in data set [1], the IC50 was 794 nM.
The matching figures for `O=S(=O)(Nc1ccc([C@]23CNC[C@H]2C3)cc1)c1ccc(OC(F)(F)F)cc1`: 631 nM, 1000 nM and 10000 nM.
On D(3) dopamine receptor, `CC(C)c1ccc(S(=O)(=O)Nc2ccc([C@]34CNC[C@H]3C4)cc2)cc1` (racemic) had a Ki of 2.51 nM. Moreover, half-maximal inhibition in data set [1] (IC50) required 1000 nM.
At D(3) dopamine receptor, `CC(C)c1ccc(S(=O)(=O)Nc2ccc(C34CNCC3C4)cc2)cc1` (single isomer, unassigned; enantiomer 1) showed a Ki of 3.98 nM. In data set [1], the IC50 is 5010 nM.
The matching figures for `CC(C)c1ccc(S(=O)(=O)Nc2ccc(C34CNCC3C4)cc2)cc1` (single isomer, unassigned; enantiomer 2): 200 nM and 1580 nM.
